For 95 compounds, IC50 results are on record in PubChem BioAssay AID1981 (Southern Research Specialized Biocontainment Screening …, 2009).

Several values for one entry are separate records, joined by “and”; a condition that tells them apart may be missing. Identical values can stand only once.

In the test the test system is S. Typhimurium PhoP-promoter GFP reporter counterscreen, fluorescence, 4 h. Kind of test: S. Typhimurium GFP fluorescence modified counterscreen for PhoP regulon inhibitor project dose response (AID 1981).

As for `Cc1cc(C(=O)N/N=C/c2ccc([N+](=O)[O-])s2)n[nH]1`, the concentration for half-maximal inhibition (IC50) was 36.7 µM. To `CCCCCCCOC(=O)C[N+](C)(C)CCOC1CC2CCC1(C)C2(C)C` (stereo not given) belongs 40.6 µM.

Turning to `NC1=NC2(CCCCC2)N=C(Nc2ccc(Br)cc2)N1`, the IC50 was 138 µM.

Consider `CCOC(=O)N1CCN(C(c2cccnc2)c2ccc3cccnc3c2O)CC1` (stereo not given), for which the IC50 is 57.1 µM. To `Nc1nc(N)c(Cc2ccc(Cl)cc2Cl)c(N)n1` belongs 149 µM; to `CCCCCOc1ccc(CSC(=N)N)cc1[N+](=O)[O-]`, 86.8 µM.

`Nc1nc2ccccc2n1Cc1ccc(Cl)c(Cl)c1`: the IC50 is 85.6 µM. To `NC1=NC[C@H](c2ccccc2)N1CCCCC1CCCCC1` belongs 66 µM; to `C[C@H]1c2cccc(O)c2C(O)=C2C(=O)C3(O)C(O)=C(C(N)=O)C(=O)[C@@H](N(C)C)[C@@H]3[C@@H](O)[C@@H]21` (stereo not given in full), 1.83 µM; to `O=C(O)CCN1C(=O)CC(N2C(=O)/C(=C/c3ccc(Cl)cc3)SC2=S)C1=O` (stereo not given), 22.5 µM. To `O=C(N/N=C/c1cc(Cl)ccc1O)c1cccnc1` belongs 35 µM. To `CN(C)c1ccc(/C=C/c2ccc3c4ccccc4ccc3[n+]2-c2ccccc2)cc1` belongs 18.8 µM; to `CCCCCCCCCCCCCCCC[N+](C)(C)CCN(Cc1ccc(OC)cc1)c1ncccn1`, 24.2 µM. With `CCN(CC)S(=O)(=O)c1cccc(C(=O)N/N=C/c2ccc(O)c(O)c2O)c1`, the 50% inhibitory concentration (IC50) was 78.9 µM. To `CCCCCCCNC(=O)C1(CC2CC(c3ccc(Cl)cc3)=NO2)CCNCC1` (stereo not given) belongs 47.8 µM. For `CCn1cc(C(=O)NCCCN(C)C)c(=O)c2cc(F)c(N3CCN(C)CC3)cc21`, the IC50 was 64.3 µM. With `CC1CCc2c(N3CCC(O)CC3)c(F)cc3c(=O)c(C(=O)O)cn1c23` (stereo not given) the figure was 6.56 µM. To `O=[N+]([O-])c1cc(O)c2ncccc2c1` belongs 15.8 µM; to `O=[N+]([O-])c1cc(/C=N/Nc2nc3ccccc3[nH]2)c(O)cc1O`, 32.5 µM. Regarding `CCCCCC(CC(=O)NO)C(=O)NC(C(=O)N1CCCC1CO)C(C)C` (stereo not given), the IC50 was 33.3 µM. To `COc1ccc(/C=N/Nc2cc(C)nc3ccccc23)cc1` belongs 84.8 µM; to `Clc1ccc(CNCc2cccs2)cc1Cl`, 123 µM; to `CC(=O)Oc1ccc(C(=O)[C@H]2[C@H]3C(=O)N(c4ccc5ccccc5c4)C(=O)[C@H]3[C@@H]3C=CC=NN32)cc1`, 138 µM. To `CO[C@H]1C=CO[C@@]2(C)Oc3c(C)c(O)c4c(O)c(c(C=NN5CCN(C)CC5)c(O)c4c3C2=O)NC(=O)C(C)=CC=C[C@H](C)[C@H](O)[C@@H](C)[C@@H](O)[C@@H](C)[C@H](OC(C)=O)[C@@H]1C` belongs 11.2 µM; to `Oc1ccc(NCc2ccccc2OCc2ccccc2F)cc1`, 79.6 µM; to `CC(=O)NC(c1ccc(C)cc1)c1cc([N+](=O)[O-])c2cccnc2c1O` (stereo not given), 37.9 µM.

Consider `CN1CCN(c2cc3c(cc2F)c(=O)c(C(=O)O)cn3CCF)CC1`, for which the IC50 was 0.51 µM. To `CCCCOc1ccc(CSC(=N)N)cc1[N+](=O)[O-]` belongs 131 µM; to `CN(Cc1ccccc1)CC(O)COc1ccc(CNCc2ccc(Cl)s2)cc1` (stereo not given), 117 µM; to `COC(=O)C(C)NC(=S)N1CCN(c2c(F)cc3c(=O)c(C(=O)O)cn(C4CC4)c3c2OC)CC1C` (stereo not given), 60.6 µM. In the case of `CCCCCCCCCCCCCCCC[N+](C)(C)CC`, the IC50 was 24.9 µM. With `c1ccc(-c2cccc(-c3ccccn3)n2)nc1` the figure was 16.4 µM. `C=CC#CC[N+]1(CC#Cc2ccccc2)CCOCC1`: the IC50 was 30.3 µM. In the case of `Oc1c(I)cc(Cl)c2cccnc12`, the IC50 was 70.7 µM. For `O=[N+]([O-])c1cc(Cl)c2cccnc2c1O`, the IC50 is 1.96 µM. To `CCn1cc(C(=O)O)c(=O)c2cnc(N3CCNCC3)nc21` belongs 58.4 µM. With `CCn1cc(C(=O)O)c(=O)c2cc(F)c(N3CCN(C(=S)NC(=O)c4ccccc4)CC3)cc21` the figure was 13.8 µM; with `Oc1cccc(Nc2nc(NCC3CCCO3)c3ccccc3n2)c1` (stereo not given), 148 µM; with `NC(=NCCCCCCN=C(N)/N=C(\N)Nc1ccc(Cl)cc1)/N=C(\N)Nc1ccc(Cl)cc1`, 9.12 µM and 9.93 µM and 9.09 µM. To `Oc1c(C(Nc2ccccn2)c2ccccn2)ccc2cccnc12` (stereo not given) belongs 55.2 µM. As to `O=C(Cc1ccccc1)Nc1cccc(N2C(=O)C=CC2=O)c1`, the half-maximal inhibitory concentration (IC50) was 142 µM. With `Cc1nc(N)nc(N)c1/C=C/C(C)(C)c1ccc(Cl)cc1` the figure was 12.9 µM; with `COc1ccccc1CNCCc1ccc(F)cc1`, 61.4 µM; with `O=C(N/N=C/c1cccc([N+](=O)[O-])c1O)c1cccs1`, 20.4 µM.

In the case of `Cc1nc(NC(=O)c2ccccc2)sc1-c1csc(Nc2ccc(F)cc2)n1`, the IC50 is 86.4 µM. With `COc1ccc(Nc2cc(C)c3c(O)cccc3n2)cc1` the figure was 70 µM.

`Fc1ccc(CCNCc2ccc(Cl)c(Cl)c2)cc1`: the IC50 was 109 µM. To `CCN1CCN(C(c2cccnc2)c2cc(Cl)c3cccnc3c2O)CC1` (stereo not given) belongs 61.9 µM. With `Oc1c(C(c2ccccn2)N2CCOCC2)ccc2cccnc12` (stereo not given) the figure was 118 µM; with `CCn1cc(C(=O)O)c(=O)c2cc(F)c(N3CCN(C(=S)NC(=O)c4cccc(F)c4)CC3)cc21`, 35.1 µM. On to `C#CCOCCOCCOCCNc1nc(N2CCN(C(=O)CCCCCCCCCCNC(=O)[C@H]([C@@H](C)CC)n3cc(CCCCN=C(N)N)nn3)CC2)nc(N2CCN(C(=O)CCCCCCCCCCNC(=O)[C@H](CCCN=C(N)N)n3cc(C[C@@H](C)CC)nn3)CC2)n1`, for which the 50% inhibitory concentration (IC50) is 30.6 µM. To `Nc1ccc(Nc2ccccc2)cc1` belongs 92.1 µM; to `Cc1ccc(C(=O)N/N=C/c2cc(Br)ccc2O)cn1`, 68.4 µM.

On to `CCn1cc(C(=O)O)c(=O)c2cc(F)c(N3CCN(C(=S)NC(=O)c4ccc(F)cc4)CC3)cc21`, for which the IC50 was 53.4 µM. To `CCCC(=O)NC(c1ccc(Cl)cc1)c1ccc2cccnc2c1O` (stereo not given) belongs 62.3 µM; to `O=C(C[n+]1cc(-c2ccc(Cl)cc2)n2c1CCC2)Nc1nc(-c2ccc(F)cc2)cs1`, 68.2 µM. With `C/C(=N\N=C(N)N)c1ccc(Cl)c(Cl)c1` the figure was 92.6 µM. For the compound `COc1cc(/C=C/[N+](=O)[O-])ccc1O`, the IC50 is 65.1 µM. `CO[C@H]1/C=C/O[C@@]2(C)Oc3c(C)c(O)c4c(O)c(c(C=NN5CCN(C)CC5)c(O)c4c3C2=O)NC(=O)/C(C)=C\C=C\[C@H](C)[C@H](O)[C@@H](C)[C@@H](O)[C@@H](C)[C@H](OC(C)=O)[C@@H]1C`: the IC50 was 10.3 µM. With `Nc1c(Cl)ncnc1N/N=C/c1ccccn1` the figure was 32.2 µM; with `CCN1/C(=C/C=C/C=C/c2sc3ccccc3[n+]2CC)Sc2ccccc21`, 23.6 µM. To `S=c1nc(C2CCCCC2)[nH][nH]1` belongs 136 µM; to `COc1nsnc1NS(=O)(=O)c1ccc(NC(=S)NC(=O)c2cccnc2)cc1`, 34.4 µM. With `CC(C)(C)CC(C)(C)c1ccc(OCCOCC[N+](C)(C)Cc2ccccc2)cc1` the figure was 47.1 µM; with `O=C(Cn1nc(CNc2ccc(Cl)cc2)[n+]2c1CCCCC2)c1ccc(Br)cc1`, 88.2 µM; with `CCn1cc(C(=O)O)c(=O)c2cc(F)c(N3CCN(C(=S)NC(=O)c4cccc(C)c4)CC3)cc21`, 25.4 µM. Consider `O=c1cc2oc3cc(O)c(O)cc3c(-c3ccccc3[N+](=O)[O-])c-2cc1O`, for which the IC50 was 56.6 µM. To `OC(c1cc(C(F)(F)F)nc2c(Cl)cc(Cl)cc12)C1CCCCN1` (stereo not given) belongs 133 µM; to `Oc1ccc(CN2CCc3ccccc3C2)c2cccnc12`, 30.5 µM; to `O=C(NN=C1CCN(Cc2ccccc2)CC1)c1cc2ccccc2cc1O`, 128 µM. As for `O=Cc1ccc(O)c2ncccc12`, the IC50 is 6.78 µM.

With `CN1CCN(C(c2ccc(Cl)cc2)c2cc(Cl)c3cccnc3c2O)CC1` (stereo not given), the IC50 was 32.9 µM.

For the compound `O=C(CSc1nc2ccccc2s1)N/N=C/c1cc([N+](=O)[O-])ccc1O`, the IC50 was 85.3 µM.

For the compound `CCCCCCCCCCCCCCCC[n+]1cccc(C(=O)N(CC)CC)c1`, the IC50 was 29.6 µM. On to `CCCCCCCCCCCCCCCC[n+]1cccc2ccccc21`, for which the IC50 is 19.5 µM. With `O=C(N/N=C/c1cc2c3c(c1O)CCCN3CCC2)c1ccccc1O` the figure was 135 µM; with `CC(C(=O)NC1C=CS(=O)(=O)C1)N1C(=O)/C(=C/c2ccc(Cl)cc2)SC1=S` (stereo not given), 141 µM; with `Oc1c(CN2CCN(c3ccc(F)cc3)CC2)cc(Cl)c2cccnc12`, 32 µM. To `Nc1ncn(C2O[C@H](CO)[C@@H](O)[C@H]2O)c(=O)n1` (stereo not given in full) belongs 13.2 µM; to `CCCC(=O)NC(c1ccc(N(C)C)cc1)c1ccc2cccnc2c1O` (stereo not given), 49.4 µM. To `CCCCCOc1ccc(Br)cc1CSC(=N)N` belongs 41.4 µM. On to `NC1CCN(c2nc3c(cc2F)c(=O)c(C(=O)O)cn3-c2ccc(F)cc2F)C1` (stereo not given), for which the IC50 was 0.53 µM.

`NC1=NC[C@H](Cc2ccc(O)cc2)N1CCC12CC3CC(CC(C3)C1)C2`: the IC50 is 78.9 µM. To `CC[n+]1c(/C=C/C=C/c2ccc(N(C)C)cc2)sc2ccccc21` belongs 74 µM. Consider `Cc1ccccc1Nc1cc(C)c2c(O)cccc2n1`, for which the 50% inhibitory concentration (IC50) was 88.2 µM. With `COc1c(F)c(F)cc2c(=O)c(C(=O)O)cn(C3CC3)c12` the figure was 66.3 µM.

On to `CCCCCCCCCCOC(=O)Cn1c(COc2cccc(C)c2)[n+](C)c2ccccc21`, for which the IC50 is 28.5 µM. With `CC1CCc2cc(F)cc3c(=O)c(C(=O)O)cn1c23` (stereo not given) the figure was 13.5 µM.

For `Oc1cccc(C=NCc2ccccc2)c1O`, the IC50 was 109 µM. For `CN(C)c1ccc(/C=C/c2ccc3ccccc3[n+]2C)cc1`, the IC50 is 26.9 µM.

Regarding `COc1c(N2CCN(C(=S)Nc3ccccc3F)C(C)C2)c(F)cc2c(=O)c(C(=O)O)cn(C3CC3)c12` (stereo not given), the IC50 was 2.31 µM. To `O=C1c2ccccc2NC(c2ccc(-c3ccc(Br)cc3)o2)N1O` (stereo not given) belongs 53 µM.

For `NCCc1c(-c2ccccc2)n(-c2ccccc2)c2ccccc12`, the IC50 was 83.7 µM.

Take `CCCCCCCSc1cc(OC)c(CCNC)cc1OC`: the IC50 is 71.8 µM. To `C#CCOCCOCCOCCNc1nc(N2CCN(C(=O)CCCCCCCCCCNC(=O)[C@H](CCCCN)n3cc(C[C@@H](C)CC)nn3)CC2)nc(N2CCN(C(=O)CCCCCCCCCCNC(=O)[C@H](CCCN=C(N)N)n3cc(C[C@@H](C)CC)nn3)CC2)n1` belongs 140 µM.
